Where two headings read alike, the source gives them in different places.
Legend:
GlyT2 = target: T1, GlyT2 (Rattus norvegicus, UniProt P58295); assay: FLIPR membrane potential assay for GlyT2 target activity (T-rex-293-rGlyT2 cells); assay type: cell-based; conditions: for inhibition at 10 µM: read-out: GlyT2 % inhibition
T1 construct: expressed in transfected cells
T1 sequence (P58295 1-799): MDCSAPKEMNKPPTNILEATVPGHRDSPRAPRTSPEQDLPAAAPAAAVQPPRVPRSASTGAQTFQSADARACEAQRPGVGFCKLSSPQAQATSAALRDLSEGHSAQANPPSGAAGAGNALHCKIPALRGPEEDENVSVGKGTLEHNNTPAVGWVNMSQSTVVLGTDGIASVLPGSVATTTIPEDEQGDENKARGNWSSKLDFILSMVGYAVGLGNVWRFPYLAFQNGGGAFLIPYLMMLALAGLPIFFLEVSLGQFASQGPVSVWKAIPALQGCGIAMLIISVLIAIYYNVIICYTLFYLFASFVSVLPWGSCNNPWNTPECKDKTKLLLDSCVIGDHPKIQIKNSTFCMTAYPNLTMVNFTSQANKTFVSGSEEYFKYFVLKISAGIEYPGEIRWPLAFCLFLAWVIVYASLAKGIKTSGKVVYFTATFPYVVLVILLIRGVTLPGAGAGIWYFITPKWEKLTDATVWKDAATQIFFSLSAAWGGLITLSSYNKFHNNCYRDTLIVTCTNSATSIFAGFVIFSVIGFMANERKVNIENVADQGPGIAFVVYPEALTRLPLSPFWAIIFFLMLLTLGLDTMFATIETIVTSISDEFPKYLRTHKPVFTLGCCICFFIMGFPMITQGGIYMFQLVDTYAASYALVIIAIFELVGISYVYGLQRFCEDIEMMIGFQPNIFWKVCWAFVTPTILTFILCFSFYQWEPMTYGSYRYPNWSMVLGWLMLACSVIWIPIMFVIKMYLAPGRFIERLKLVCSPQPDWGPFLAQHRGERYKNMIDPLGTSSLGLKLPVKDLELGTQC
Protocol: GlyT2 (Glycine transporter type 2) is an electrogenic carrier associated with Na^+/Cl^− ion transportation, primarily distributed around the spinal cord part, and has an important role in the transfer of a pain signal in the spinal cord.
In order to identify the fact that the novel compound of the present invention has GlyT2 targeting activity, a membrane potential assay was performed. FLIPR Membrane Potential Assay is used to measure ion channel modulation caused by an increase or decrease in fluorescence signal due to variations of cellular membrane potential.
First, pcDNA4/TO vector encoding GlyT2 of the rat in HEK293 cell was transfected to prepare a stable recombinant cell line, i.e., T-rex-293-rGlyT2. A […] (Greiner #655090) coated with poly-D-lysine was prepared, and the above recombinant cells (T-rex-293-rGlyT2) were seeded at 3.2×10^4/well therein using a medium containing 15 μg/ml of tetracycline. After this, incubation was conducted at 37° C. for 48 hours under 5% CO2 conditions to express GlyT2. 10 ml of assay buffer (1×HBSS, 20 mM HEPES, pH 7.4) was added to a blue dye solution and sufficiently dissolved therein to prepare a membrane potential dye solution. After removing the medium from the well showing GlyT2 expression, the membrane potential dye solution was added to the well in an amount of 100 μl/well and incubated for 20 minutes.
According to the FLIPR Membrane Potential Assay kit's protocol, SoftMax Pro Software of FlexStation 3 software (Molecular Devices, US) was set up. An extent of GlyT2 expression was determined such that the extent of cellular membrane depolarization relative to an administered amount of glycine during glycine treatment is indicated in relative fluorescence units (RFU), and RFU (Max-Min) is calculated by subtracting the minimum value from the maximum value of RFU. After firstly treating 10 uM of the novel compound according to the present invention, glycine was treated and RFU (Max-Min) for glycine administration was determined. Then, with the determined result, the extent of depolarization inhibition (% inhibition) was assessed for each compound, compared to a positive control.
The positive control used herein was ORG25543 (500 nM) having strong inhibitory efficacy specific to GlyT2.
For GlyT2 inhibitory efficacy, the efficacy of the compound ORG25543 (500 nM) was defined as 100%. Similarly, for 5HT2A inhibitory efficacy, the efficacy of MDL11939 (100 nM) was defined as 100%. Therefore, the target inhibitory efficacy of each compound was indicated in a relative value compared to the above defined efficacy.

5HT2A = 5HT2A (Homo sapiens, UniProt P28223); assay: FLIPR calcium assay for 5HT2A target activity (transfected HEK293 cells); assay type: cell-based
[1] = system: neuropathic pain model (Chung model); assay: Neuropathic pain model (Chung model, SNL), paw withdrawal threshold; assay type: in vivo, rat; conditions: subcutaneous 50 mg/kg or oral 100 mg/kg; gabapentin 55 to 70 mg/kg intraperitoneal; FIGS. 1 to 22
[2] = 10 uM compound, then glycine, relative to ORG25543 (500 nM) defined as 100%
[3] = HEK293, 10 uM compound, then serotonin, relative to MDL11939 (100 nM) defined as 100%, read-out: 5HT2A % inhibition
[4] = HEK293, read-out: 5HT2A % inhibition

Sequence of 5HT2A (P28223 whole entry, species assumed): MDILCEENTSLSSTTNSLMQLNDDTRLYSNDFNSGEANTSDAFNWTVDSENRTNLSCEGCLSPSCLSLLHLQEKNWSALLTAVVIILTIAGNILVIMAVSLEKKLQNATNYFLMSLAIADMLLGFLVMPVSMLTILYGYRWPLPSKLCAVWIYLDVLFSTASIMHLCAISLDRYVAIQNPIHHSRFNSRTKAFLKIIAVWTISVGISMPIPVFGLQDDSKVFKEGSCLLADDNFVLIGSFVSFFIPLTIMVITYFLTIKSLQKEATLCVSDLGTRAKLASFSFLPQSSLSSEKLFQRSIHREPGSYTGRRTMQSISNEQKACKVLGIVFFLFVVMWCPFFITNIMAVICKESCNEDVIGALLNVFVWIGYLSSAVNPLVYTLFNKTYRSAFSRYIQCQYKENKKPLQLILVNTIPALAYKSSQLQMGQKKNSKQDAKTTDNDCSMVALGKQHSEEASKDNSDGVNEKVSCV

| Compound | inhibition at 10 µM (GlyT2; [2]) | inhibition at 10 µM (5HT2A; [3]) | inhibition at 10 µM (GlyT2) | inhibition at 10 µM (5HT2A; [4]) | further results |
| --- | --- | --- | --- | --- | --- |
| COc1cc(C(=O)NCC2CCCCN2C)cc(OC)c1OCc1ccccc1 (centres unmarked) [VVZ-009] | 117% | 90.4% |  |  |  |
| O=C(c1cccc(C(F)(F)F)c1)N1CCN(CCc2ccccc2)CC1 [VVZ-042] | 34.4% | 107% |  |  |  |
| COc1ccc(C(CNC(=O)c2cc(OC)c(OCc3ccccc3)c(OC)c2)N2CCCC2)cc1 (centres unmarked) [VVZ-015] | 108% | 57% |  |  |  |
| CN(C)C1(CNC(=O)c2ccc(OCc3ccccc3)cc2)CCOCC1 [VVZ-038] |  |  | 108% | 96.1% | analgesic efficacy compared to GBP positive control [1]: analgesic efficacy substantially equal to 0 °C superior to GBP |
| Cc1cc(C(=O)NCC2(N3CCN(C)CC3)CCCCC2)cc(C)c1OCc1ccccc1 [VVZ-063] |  |  | 112% | 76.7% |  |
| COc1cc(C(=O)NCCN2CCOCC2)cc(OC)c1OCc1ccccc1 [VVZ-006] | 48.9% |  |  | 89.8% |  |
| COc1cc(N)c(Cl)cc1C(=O)NCC1(O)CCN(C)CC1 [VVZ-055] | 55.3% | 146% |  |  |  |
| COc1cc(N)c(Cl)cc1C(=O)N[C@H]1CN2CCC1CC2 [VVZ-047] | 23.4% | 78.8% |  |  |  |
| CCCCOc1c(OC)cc(C(=O)NC[C@H]2CCCN2CC)cc1OC [VVZ-029] | 46% | 71.3% |  |  |  |
| CN1CCN(C2(CNC(=O)c3ccc(OCc4ccccc4)cc3)CCCCC2)CC1 [VVZ-069] |  |  | 83.9% | 150% |  |
| CCCCOc1ccc(C(=O)NCC(c2ccccc2)N(C)C)cc1 (centres unmarked) [VVZ-052] |  |  | 76.6% | 103% |  |
| CCCCOc1c(C)cc(C(=O)NCC2(O)CCN(C)CC2)cc1C [VVZ-053] | 59.6% | 31.4% |  |  |  |
| COc1cc(C(=O)NCC(c2ccccc2)N(C)C)cc(OC)c1OCc1ccccc1 (centres unmarked) [VVZ-010] |  |  |  |  | GlyT2 % inhibition (GlyT2): 102.5%; 5HT2A % inhibition (5HT2A): 108.1% |
| COc1cc(C(=O)NCC2(N(C)C)CCC(F)(F)CC2)cc(OC)c1OCc1ccccc1 [VVZ-016] |  |  | 109% | 97.5% |  |
| COc1cc(C(=O)NCC2(N(C)C)CCCCC2)cc(OC)c1OCc1ccccc1 [VVZ-037] |  |  | 100% | 99.8% |  |
| O=C(NCC1(N2CCOCC2)CCOCC1)c1ccc(OCc2ccccc2)cc1 [VVZ-076] |  |  | 50.6% | 113% |  |
| COc1cc(C(=O)NCC(=O)N2CCC(C)CC2)cc(OC)c1OCc1ccccc1 [VVZ-040] |  |  |  |  | analgesic efficacy compared to GBP positive control [1]: analgesic efficacy substantially equal to 0 °C superior to GBP |
| CCN(C)C1(CNC(=O)c2cc(OC)c(OCc3ccccc3)c(OC)c2)CC=C(F)CC1 (centres unmarked) [VVZ-050] | 117% | 108% |  |  |  |
| CCN1CCC[C@H]1CNC(=O)c1cc(OC)c(OCc2ccccc2)c(OC)c1 [VVZ-014] | 75% | 93.6% |  |  |  |
| COc1cc(C(=O)NCC2(NCc3ccccc3)CCOCC2)cc(OC)c1OCc1ccccc1 [VVZ-084] | 79% | 94.4% |  |  |  |
| COc1cc(C(=O)NC2CCN(Cc3ccccc3)C2)cc(OC)c1OCc1ccccc1 (centres unmarked) [VVZ-013] | 72.9% | 48.5% |  |  |  |
| CN(C)C1(CNC(=O)c2ccc(OCc3ccccc3)cc2)CCOCC1 [VVZ-065] |  |  |  |  | GlyT2 % inhibition (GlyT2): 105.1%; 5HT2A % inhibition (5HT2A): 107.8% |
| COc1cc(C(=O)NCC2(N3CCN(C)CC3)CCOCC2)cc(OC)c1OCc1ccccc1 [VVZ-071] |  |  | 78.8% | 60.8% |  |

| Compound | inhibition at 10 µM (GlyT2; [2]) | inhibition at 10 µM (5HT2A; [3]) | inhibition at 10 µM (GlyT2) | inhibition at 10 µM (5HT2A; [4]) | further results |
| --- | --- | --- | --- | --- | --- |
| COc1cc(C(=O)NCC(c2ccccc2)N(C)C)cc(OC)c1OCc1ccccc1 (centres unmarked) [VVZ-020] |  |  | 103% | 94.1% |  |
| CN(C)C1(CNC(=O)c2cccc(C(F)(F)F)c2)CCC(F)(F)CC1 [VVZ-062] |  |  |  |  | analgesic efficacy compared to GBP positive control [1]: analgesic efficacy substantially equal to 0 °C superior to GBP |
| Cc1cc(C(=O)NCC2(N(C)C)CCC(F)(F)CC2)cc(C)c1OCc1ccccc1 [VVZ-058] |  |  | 102% | 134% |  |
| COc1cc(C(=O)NCC2(N(C)C)CCOCC2)cc(OC)c1OCc1ccccc1 [VVZ-036] |  |  | 103% | 66.1% |  |
| COc1cc(C(=O)N[C@H]2CN3CCC2CC3)cc(OC)c1OCc1ccccc1 [VVZ-003] | 78.2% | 31.6% |  |  |  |
| CN1CCN(C2(CNC(=O)c3ccc(OCc4ccccc4)cc3)CCOCC2)CC1 [VVZ-072] |  |  | 59.1% | 101% |  |
| Cc1cc(C(=O)NC(CN2CCOCC2)c2ccccc2)cc(C)c1OCc1ccccc1 (centres unmarked) [VVZ-080] | 40.6% | 113% |  |  |  |
| COc1cc(C(=O)NCC2(N(C)C)CC=C(F)CC2)cc(OC)c1OCc1ccccc1 (centres unmarked) [VVZ-028] | 87.9% |  |  | 93.9% |  |
| CN(C)C(CNC(=O)c1ccc(OCc2ccccc2)cc1)c1ccccc1 (centres unmarked) [VVZ-051] |  |  | 110% | 95% |  |
| CN(C)C(CNC(=O)c1cccc(C(F)(F)F)c1)c1ccccc1 (centres unmarked) [VVZ-078] |  |  |  |  | analgesic efficacy compared to GBP positive control [1]: analgesic efficacy substantially equal to 0 °C superior to GBP |
| COc1cc(C(=O)NCC2(N3CCOCC3)CCOCC2)cc(OC)c1OCc1ccccc1 [VVZ-074] |  |  | 73.5% | 155% |  |
| CCN1CCC[C@@H]1CNC(=O)c1cc(OC)c(OCc2ccccc2)c(OC)c1 [VVZ-012] | 118% | 76.1% |  |  |  |
| Cc1cc(C(=O)NCC(c2ccccc2)N(C)C)cc(C)c1OCc1ccccc1 (centres unmarked) [VVZ-046] |  |  | 113% | 54.2% |  |
| O=C(NCC(c1ccccc1)N1CCOCC1)c1ccc(OCc2ccccc2)cc1 (centres unmarked) [VVZ-081] |  |  | 45.3% | 71.5% |  |
| COc1cc(C(=O)N[C@@H]2CCN(Cc3ccccc3)C2)cc(OC)c1OCc1ccccc1 [VVZ-011] | 88.8% | 56.2% |  |  |  |
| Cc1cc(C(=O)NCC2(O)CCN(C)CC2)cc(C)c1OCc1ccccc1 [VVZ-054] | 82.9% | 57.1% |  |  |  |
| CCCCOc1c(C)cc(C(=O)NCC(c2ccccc2)N(C)C)cc1C (centres unmarked) [VVZ-057] |  |  | 101% | 65.7% |  |
| CCCCOc1c(OC)cc(C(=O)NCC2(N3CCN(C)CC3)CCCCC2)cc1OC [VVZ-032] |  |  |  |  | analgesic efficacy compared to GBP positive control [1]: analgesic efficacy substantially equal to 0 °C superior to GBP |
| COc1cc(C(=O)NCC(c2ccccc2)N2CCCC2)cc(OC)c1OCc1ccccc1 (centres unmarked) [VVZ-035] | 84.8% | 101% |  |  |  |
| CCCCOc1c(OC)cc(C(=O)NCC(c2ccccc2)N(C)C)cc1OC (centres unmarked) [VVZ-033] |  |  | 105% | 97.1% |  |
| CCCCOc1c(OC)cc(C(=O)Nc2nnc(C)s2)cc1OC [VVZ-025] |  |  |  |  | analgesic efficacy compared to GBP positive control [1]: analgesic efficacy substantially equal to 0 °C superior to GBP |
| COc1cc(C(=O)NCC(c2ccccc2)N2CCOCC2)cc(OC)c1OCc1ccccc1 (centres unmarked) [VVZ-018] |  |  | 76.8% | 70.7% |  |
